Assays:
[1] = test system: (HEK293 cells); assay: [3H]-WIN55212-2 binding competition in HEK293 cells; parameters: species or system human; conditions: FIG. 2c
Protocol: Cells were grown to 90% confluence, rinsed twice with 1× PBS and stored at −80° C. until further use. To prepare crude cellular membrane fractions, dishes were removed from −80° C. and thawed at room temperature for 5 min. Once thawed, cells were lysed with ice-cold homogenization buffer (50 mM Tris, 1 mM EDTA, 3 mM MgCl2) and gently scraped from the dish. Total cell lysates from 3-5 dishes were collected on ice in 3 ml of ice-cold homogenization buffer Cells were homogenized at 6,500 rpm (PRO Scientific, Oxford, Conn.) twice for 10 sec and centrifuged at 11,500 rpm for 20 min at 4° C. Supernatants were discarded and cell pellets were resuspended in homogenization buffer and tris rated 10 times in ice-cold homogenization buffer. Crude cellular membrane homogenates were stored at −80° C. until further use. […]
Due to the lipophillic nature of the tested compounds, all experiments were performed in silanized glass test tubes (Alltech, Deerfield, Ill.) with silanized pipette tips (VWR Scientific, Brisbane, Calif.) to reduce the loss of ligands. […] For competition binding assays, specific binding was calculated by subtracting the average dpm (disintegrations per minute, dpm) if non-specific points from the individual dpm values for each total binding point and expressed as either fmol/mg for saturation analyses or as a percent of total radioligand binding in competition curves. […]

[2] = test system: mouse microglia in primary culture; assay: IP production in mouse microglia; format: cell-based

**Q.** Which “competition for [3H]-WIN55212-2 binding” value [1] does the source give for CCn1c(C)c(C(=O)c2ccc(C)c3ccccc23)c2ccccc21 [ST-11] here?
**A.** competes

**Q.** What about the IP production [2] of the same compound?
**A.** does not stimulate or inhibit IP production

Source: US20150018369A1 (priority 2012, published 2015)
